Assay results: patent US20240181123A1, “DRUG-ELUTING SUTURE FOR ATTENUATING INFLAMMATION IN WOUNDS” (University of Utah Research Foundation, priority 2022, published 2024)

Assay type: physicochemical
Method: In another variation of the manufacturing process involving hot-melt extrusion, a mixed/combined composition of the polymer material (often in the form of a powder) and the anti-inflammatory agent is raised to a temperature above the glass transition temperature of the polymer material. The combined composition is then subjected to hot-melt extrusion to form the suture. The temperature during the hot-melt extrusion process preferably remains at or below 140° C. We discovered that tacrolimus begins to degrade at temperatures above this limit. By carrying out the hot-melt extrusion at temperatures at or below 140° C., the process allows for the formation of the suture without causing degradation of the tacrolimus or the polymer material.

## C=CC[C@@H]1/C=C(\C)C[C@H](C)C[C@H](OC)[C@H]2O[C@@](O)(C(=O)C(=O)N3CCCC[C@H]3C(=O)O[C@H](/C(C)=C/[C@@H]3CC[C@@H](O)[C@H](OC)C3)[C@H](C)[C@@H](O)CC1=O)[C@H](C)C[C@@H]2OC [tacrolimus]
  temperature above which tacrolimus begins to degrade: > 140 °C
